Values of other authors in patent US20120302647A1, “SYNTHESIS OF MAGNOLOL AND ITS ANALOGUE COMPOUNDS” (INDIAN INSTITUTE OF CHEMICAL TECHNOLOGY, priority 2010, published 2012).

Experiments:
[1] = times greater than α-tocopherol
[2] = test system: cortical neuron-astrocyte mixed cultures; conditions: chemical hypoxia by KCN
[3] = test system: myocardium

For C=CCc1ccc(O)c(-c2cc(CC=C)ccc2O)c1 [magnolol, 5,5′-diallylbiphenyl-2,2′-diol], the “antioxidant activity relative to α-tocopherol” value [1] is given as 1000 times, the “protection of neurons against chemical hypoxia” value [2] is given as “protects neurons against chemical hypoxia by KCN” and the “protection of the myocardium against infarction and reperfusion injury” value [3] is given as “protecting the myocardium against infarction and reperfusion injury”.
